These results are taken from article PMC5129982, “Screen-identified selective inhibitor of lysine demethylase 5A blocks cancer cell growth and drug resistance” (Oncotarget, 2016).

One experiment has as its system ZR-75-1 cells. Description: WST-1 proliferation assay, ZR-75-1. In kind it is cell-based, human. As to conditions: ZR-75-1, 5 days of treatment. How it is done:
(§1) WST-1 reagent from Roche Applied Sciences (11644807001) was used to measure cell number before drug addition and after 3 or 5 days of growth as described previously. Cells were seeded in 96-well plates at the following number of cells per well: HeLa (2000), MCF7 (2000), ZR-75-1 (1000), MCF10A (1000), MDA-MB-231(5000). DMSO was used at 0.1%. Relative absorbance was calculated by subtracting the average background (media only) signal, dividing by the average signal on day 0, and then dividing by the average day 5/day 0 ratio for the DMSO controls. Significance was calculated by unpaired, two-tailed student's t-test using GraphPad Prism 6.0 software.

Another experiment concerns MCF7 cells. Description: WST-1 proliferation assay, MCF7. The settings on record: MCF7, after 3 days. In kind it is cell-based, human. The procedure: as §1
(In general: Tetrazolium dyes change colour on reduction, which living cells bring about.)

For experiment [1], the system named is H3K4 methylation in MCF10A cells. The experiment in a line: Western blot of global H3K4 methylation, MCF10A. The class given is cell-based, human. As to conditions: 72 hr treatment. How it is done: (§2) Cells were lysed as described previously. Histones were separated by centrifugation, resuspended in Laemmeli buffer, and sonicated. Protein concentration of cell lysates was measured by Bradford assay. Samples in Laemmeli buffer were boiled 10 minutes at 95°C and loaded onto 7% (whole cell lysates) or 18% (histones) SDS-PAGE gels. Membranes were blocked in 4% non-fat milk in Tris-buffered saline with 0.05% Tween (TBS-T) and incubated with primary antibodies in the same buffer or 5% bovine serum albumin in TBS-T overnight at 4°C. Membranes were incubated with secondary anti-rabbit or anti-mouse antibodies for one hour at room temperature. Blots were visualized by Thermo Scientific Pierce ECL Western Blotting Substrate (32106) or EMD Millipore Immobilon Western Chemiluminescent HRP Substrate (WBKLS0100) on film. Signal was quantified using ImageJ software.
A general note: A western blot detects proteins with antibodies after separation by electrophoresis.

The next experiment has as its target T1, FLAG-KDM5B (Homo sapiens, UniProt Q9UGL1).
T1 construct: Full-length FLAG-KDM5B, FLAG-KDM5C, and His-FLAG-KDM6A production was detailed previously; FLAG (N); made in house
Description: AlphaScreen KDM5B demethylation assay. In kind it is biochemical. The procedure: (§3) Histone demethylase assays were performed as described previously, with the exception of all enzyme reactions containing 125 μM α-KG. Enzymes were used at the following approximate concentrations in validation experiments, chosen based on their activity in AlphaScreen assays: 19 nM FLAG-KDM5A, 15 nM FLAG-KDM5B, 6 nM FLAG-KDM5C, 29 nM His-FLAG-KDM6A, and 16 nM FLAG-KDM6B. 24 nM FLAG-KDM5A was used for Km determination experiments. Reactions were carried out for 1 hour, or were stopped by addition of 30 mM EDTA every 5 minutes for determining enzyme kinetics. Km values were calculated using the Michaelis-Menten non-linear regression analysis on GraphPad Prism 6.0 software. The concentration of DMSO in demethylation reactions was 0.05%. For reactions with catalase, catalase (Sigma C30) or an equal volume of dilution buffer was added to the peptide-containing buffer before addition of the demethylase. The final concentration of catalase in the reactions was 0.01 mg/ml.
(§4) The AlphaScreen general IgG (protein A) detection kit from PerkinElmer Life Sciences was used as described previously. The luminescence emission was recorded at 570 nm using the AlphaScreen optic module on a Pherastar (BMG Labtech) or Envision (PerkinElmer Life Sciences) microplate reader.
A general note: Alpha assays give light when donor and acceptor beads are brought close together.

The subject of experiment [2] is H3K4 methylation in MCF7 cells. The experiment in a line: Western blot of global H3K4 methylation, MCF7. The class given is cell-based, human. The settings on record: 48 hr. How it is done:
as §2

The test system of another experiment is HeLa cells. The experiment in a line: WST-1 proliferation assay, HeLa. The class given is cell-based, human. As to conditions: after 3 days. How it is done:
as §1

The subject of experiment [3] is H3K4 methylation in HeLa cells. Description: Western blot of global H3K4 methylation, HeLa. In kind it is cell-based, human. As to conditions: for H3K4me3 Fold (H3K4me3/Total H3, normalized to DMSO): 48 hr. How it is done:
as §2

The subject of another experiment is MCF10A cells. Description: WST-1 proliferation assay, MCF10A. In kind it is cell-based, human. As to conditions: 5 days of treatment. How it is done: as §1
The target of the next experiment is T2, His-FLAG-KDM6A (UTX) (Homo sapiens, UniProt O15550).
T2 construct: Full-length FLAG-KDM5B, FLAG-KDM5C, and His-FLAG-KDM6A production was detailed previously; His (N); FLAG (N); made in house
The experiment in a line: AlphaScreen KDM6A demethylation assay. The class given is biochemical. How it is done: as §3, §4

Experiment [4] deals with H3K4 methylation in ZR-75-1 cells. Description: Western blot of global H3K4 methylation, ZR-75-1. The class given is cell-based, human. The settings on record: ZR-75-1, 48 hour treatment. The procedure: as §2
For another experiment, the target named is T3, full-length FLAG-KDM5A (Homo sapiens, UniProt P29375).
T3 construct: Sf21 insect cells were infected with baculovirus to express full-length FLAG-KDM5A; made in house; host or cells: Sf21 insect cells (baculovirus)
The experiment in a line: AlphaScreen KDM5A demethylation assay. As to conditions: for inhibition at 2 µM: 2 μM compound. In kind it is biochemical.
Source text: AlphaScreen technology (PerkinElmer) was utilized to perform a screen for small molecule inhibitors of KDM5A. The assay was comprised of two steps, a demethylation reaction followed by detection of the product. A biotinylated H3K4me3 peptide was used as substrate in the demethylation reaction with KDM5A in the presence or absence of small molecule inhibitors. The presence of peptide product (H3K4me1/2) was detected using a product-specific antibody and beads. For this, acceptor beads coated in protein A bound to the antibody, which recognized the peptide product. Donor beads coated in streptavidin bound biotin on the peptide substrate. If the demethylation reaction occurred, the beads were in very close proximity and laser excitation of the donor beads at 680nm caused a transfer of energy in the form of reactive singlet oxygen, resulting in emission by the acceptor beads between 520–620 nm ([30, 31], Figure 1A). The luminescent signal detected was a proxy for the amount of demethylation that occurred.
Reactions were carried out for 1 hour, or were stopped by addition of 30 mM EDTA every 5 minutes for determining enzyme kinetics. Km values were calculated using the Michaelis-Menten non-linear regression analysis on GraphPad Prism 6.0 software. The concentration of DMSO in demethylation reactions was 0.05%. For reactions with catalase, catalase (Sigma C30) or an equal volume of dilution buffer was added to the peptide-containing buffer before addition of the demethylase. The final concentration of catalase in the reactions was 0.01 mg/ml.
as §4
IC50 values were calculated by log transformation and non-linear regression log(inhibitor) versus response(three parameters) using Graphpad Prism 6.0 software.

In experiment [5] the test system is H3K4 methylation in MDA-MB-231 cells. Description: Western blot of global H3K4 methylation, MDA-MB-231. In kind it is cell-based, human. The settings on record: MDA-MB-231, 72 hr treatment. How it is done:
as §2

T3 sequence (P29375 whole entry): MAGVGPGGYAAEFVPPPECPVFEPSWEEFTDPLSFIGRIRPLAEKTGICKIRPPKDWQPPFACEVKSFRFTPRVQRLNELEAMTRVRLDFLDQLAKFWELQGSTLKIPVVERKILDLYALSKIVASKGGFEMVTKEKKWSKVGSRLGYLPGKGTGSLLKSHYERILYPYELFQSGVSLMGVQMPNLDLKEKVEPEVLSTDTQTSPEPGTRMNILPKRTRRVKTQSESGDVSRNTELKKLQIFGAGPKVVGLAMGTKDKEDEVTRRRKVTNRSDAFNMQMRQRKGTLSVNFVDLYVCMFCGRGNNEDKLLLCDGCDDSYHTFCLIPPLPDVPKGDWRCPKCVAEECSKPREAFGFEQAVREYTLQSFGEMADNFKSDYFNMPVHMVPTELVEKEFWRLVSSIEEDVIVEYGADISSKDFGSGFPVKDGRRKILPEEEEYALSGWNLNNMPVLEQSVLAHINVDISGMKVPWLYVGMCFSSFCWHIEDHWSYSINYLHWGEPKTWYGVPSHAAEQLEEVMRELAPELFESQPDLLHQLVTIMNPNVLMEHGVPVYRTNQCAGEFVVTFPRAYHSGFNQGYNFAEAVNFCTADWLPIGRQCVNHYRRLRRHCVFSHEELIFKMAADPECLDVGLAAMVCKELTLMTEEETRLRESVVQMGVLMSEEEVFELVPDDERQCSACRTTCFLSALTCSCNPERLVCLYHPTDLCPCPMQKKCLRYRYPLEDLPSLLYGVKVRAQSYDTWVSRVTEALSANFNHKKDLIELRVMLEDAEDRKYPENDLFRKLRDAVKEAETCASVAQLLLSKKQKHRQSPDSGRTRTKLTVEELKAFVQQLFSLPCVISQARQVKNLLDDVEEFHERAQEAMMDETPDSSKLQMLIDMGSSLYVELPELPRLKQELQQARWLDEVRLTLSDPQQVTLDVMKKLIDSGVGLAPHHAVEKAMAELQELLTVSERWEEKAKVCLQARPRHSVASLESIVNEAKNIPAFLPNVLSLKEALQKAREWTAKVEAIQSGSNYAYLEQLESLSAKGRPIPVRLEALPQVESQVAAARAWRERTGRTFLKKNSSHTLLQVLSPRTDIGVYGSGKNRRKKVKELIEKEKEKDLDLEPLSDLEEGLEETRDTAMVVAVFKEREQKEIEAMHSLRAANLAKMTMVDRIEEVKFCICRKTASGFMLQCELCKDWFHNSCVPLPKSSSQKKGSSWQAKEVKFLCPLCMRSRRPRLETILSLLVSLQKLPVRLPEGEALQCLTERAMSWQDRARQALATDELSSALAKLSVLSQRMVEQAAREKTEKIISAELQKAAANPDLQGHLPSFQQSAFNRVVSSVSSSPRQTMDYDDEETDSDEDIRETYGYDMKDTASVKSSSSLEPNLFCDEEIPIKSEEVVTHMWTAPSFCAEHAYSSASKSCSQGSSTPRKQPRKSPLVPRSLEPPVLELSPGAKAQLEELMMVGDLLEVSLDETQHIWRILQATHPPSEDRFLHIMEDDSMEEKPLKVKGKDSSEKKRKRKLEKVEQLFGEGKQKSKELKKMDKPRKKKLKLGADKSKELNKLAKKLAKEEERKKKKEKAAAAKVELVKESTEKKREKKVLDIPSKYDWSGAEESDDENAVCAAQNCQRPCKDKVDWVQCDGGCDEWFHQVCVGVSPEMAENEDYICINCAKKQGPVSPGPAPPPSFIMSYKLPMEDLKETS
T1 sequence (Q9UGL1 whole entry): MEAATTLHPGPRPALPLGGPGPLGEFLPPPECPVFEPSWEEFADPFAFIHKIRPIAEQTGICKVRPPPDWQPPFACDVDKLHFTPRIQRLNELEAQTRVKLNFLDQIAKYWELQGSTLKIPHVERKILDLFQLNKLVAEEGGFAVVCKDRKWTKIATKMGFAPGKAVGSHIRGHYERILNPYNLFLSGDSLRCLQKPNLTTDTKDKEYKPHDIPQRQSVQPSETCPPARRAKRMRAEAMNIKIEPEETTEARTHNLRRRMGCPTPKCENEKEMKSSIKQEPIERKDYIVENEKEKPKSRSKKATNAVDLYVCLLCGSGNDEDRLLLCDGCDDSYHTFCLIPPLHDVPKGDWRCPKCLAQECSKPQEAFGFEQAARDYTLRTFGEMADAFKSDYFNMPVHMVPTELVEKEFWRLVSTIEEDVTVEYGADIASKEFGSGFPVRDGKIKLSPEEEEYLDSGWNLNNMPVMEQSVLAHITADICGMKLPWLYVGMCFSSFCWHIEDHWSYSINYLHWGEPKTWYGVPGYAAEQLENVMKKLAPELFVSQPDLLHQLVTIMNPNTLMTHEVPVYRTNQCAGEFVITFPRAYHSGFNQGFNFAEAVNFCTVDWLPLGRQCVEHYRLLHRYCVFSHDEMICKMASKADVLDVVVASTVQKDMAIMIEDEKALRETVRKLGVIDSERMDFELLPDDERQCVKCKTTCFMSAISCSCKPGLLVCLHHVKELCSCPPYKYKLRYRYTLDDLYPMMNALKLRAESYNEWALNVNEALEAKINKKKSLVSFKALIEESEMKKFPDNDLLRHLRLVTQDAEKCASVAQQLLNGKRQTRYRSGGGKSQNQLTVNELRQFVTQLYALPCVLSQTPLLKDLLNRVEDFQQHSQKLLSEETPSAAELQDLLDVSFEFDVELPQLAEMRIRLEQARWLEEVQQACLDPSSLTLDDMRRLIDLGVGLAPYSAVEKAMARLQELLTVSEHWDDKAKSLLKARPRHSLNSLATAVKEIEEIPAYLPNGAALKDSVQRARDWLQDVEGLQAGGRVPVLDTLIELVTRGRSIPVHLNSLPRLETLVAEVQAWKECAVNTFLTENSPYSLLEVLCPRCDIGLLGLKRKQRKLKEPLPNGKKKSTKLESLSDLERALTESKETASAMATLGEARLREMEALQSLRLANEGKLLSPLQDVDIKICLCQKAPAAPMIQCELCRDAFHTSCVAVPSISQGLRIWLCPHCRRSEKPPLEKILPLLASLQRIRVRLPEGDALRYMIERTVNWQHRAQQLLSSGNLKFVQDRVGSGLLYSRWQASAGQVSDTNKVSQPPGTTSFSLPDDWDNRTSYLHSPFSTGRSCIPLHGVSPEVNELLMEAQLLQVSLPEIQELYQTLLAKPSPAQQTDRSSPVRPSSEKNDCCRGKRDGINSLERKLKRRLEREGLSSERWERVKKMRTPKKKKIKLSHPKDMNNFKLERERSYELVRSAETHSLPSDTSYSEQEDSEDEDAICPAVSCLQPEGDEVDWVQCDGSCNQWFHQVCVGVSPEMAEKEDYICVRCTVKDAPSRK
T2 sequence (O15550 whole entry): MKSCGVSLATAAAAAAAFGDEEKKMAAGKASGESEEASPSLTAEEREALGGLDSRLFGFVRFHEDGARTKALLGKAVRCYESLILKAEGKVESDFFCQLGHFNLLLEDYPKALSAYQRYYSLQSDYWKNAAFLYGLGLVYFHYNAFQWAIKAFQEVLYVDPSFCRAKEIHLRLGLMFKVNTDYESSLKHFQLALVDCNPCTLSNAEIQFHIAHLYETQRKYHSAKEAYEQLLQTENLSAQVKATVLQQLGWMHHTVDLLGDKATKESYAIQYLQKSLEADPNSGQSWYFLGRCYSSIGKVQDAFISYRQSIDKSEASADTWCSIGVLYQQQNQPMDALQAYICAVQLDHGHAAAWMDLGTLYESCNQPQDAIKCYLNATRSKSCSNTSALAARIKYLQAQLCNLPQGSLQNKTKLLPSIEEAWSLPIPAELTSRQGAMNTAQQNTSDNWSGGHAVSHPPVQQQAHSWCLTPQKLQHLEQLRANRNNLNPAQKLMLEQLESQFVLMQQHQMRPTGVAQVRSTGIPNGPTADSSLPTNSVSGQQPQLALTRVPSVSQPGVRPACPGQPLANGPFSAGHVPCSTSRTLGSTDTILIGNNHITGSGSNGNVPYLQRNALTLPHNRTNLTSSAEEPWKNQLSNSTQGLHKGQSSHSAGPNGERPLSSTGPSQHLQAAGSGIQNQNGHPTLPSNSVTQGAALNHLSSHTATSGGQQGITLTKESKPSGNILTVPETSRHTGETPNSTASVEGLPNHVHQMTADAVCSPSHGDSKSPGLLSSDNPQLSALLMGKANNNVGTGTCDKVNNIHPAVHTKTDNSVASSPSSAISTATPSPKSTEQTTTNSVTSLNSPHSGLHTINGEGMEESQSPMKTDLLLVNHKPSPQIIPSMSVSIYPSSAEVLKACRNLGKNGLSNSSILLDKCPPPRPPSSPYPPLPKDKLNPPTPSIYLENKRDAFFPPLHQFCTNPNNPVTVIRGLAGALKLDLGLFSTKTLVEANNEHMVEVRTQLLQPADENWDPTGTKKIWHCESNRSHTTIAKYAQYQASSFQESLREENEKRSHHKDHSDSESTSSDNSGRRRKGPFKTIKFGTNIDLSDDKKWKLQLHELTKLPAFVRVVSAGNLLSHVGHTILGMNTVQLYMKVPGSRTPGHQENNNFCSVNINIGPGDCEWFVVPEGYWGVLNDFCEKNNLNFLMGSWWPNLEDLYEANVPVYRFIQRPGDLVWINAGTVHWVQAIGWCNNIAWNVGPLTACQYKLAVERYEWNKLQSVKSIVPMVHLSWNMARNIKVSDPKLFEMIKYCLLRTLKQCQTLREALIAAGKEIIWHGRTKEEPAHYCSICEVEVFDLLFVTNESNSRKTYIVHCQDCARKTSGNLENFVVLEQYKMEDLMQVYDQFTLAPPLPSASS

Regarding `C=CCOc1c(CNn2cnnc2S)cccc1OC` [YUKA1, 4-([2-(allyloxy)-3-methoxybenzyl]amino)-4H-1,2,4-triazole-3-thiol], the cell proliferation entry is on record as “decreased cell proliferation” with ZR-75-1 cells and “did not hinder cell proliferation” in the experiment with MCF10A cells. Further, in the experiment with MCF7 cells, the proliferation result is listed as “not affected”. Further, the H3K4 methylation levels entry in [1] is reported as “did not affect H3K4 methylation levels”. The IC50 (commonly the point on the concentration scale where inhibition reaches its midpoint) on FLAG-KDM5B (AlphaScreen) is above 50 µM; against His-FLAG-KDM6A (UTX), above 50 µM; against full-length FLAG-KDM5A (AlphaScreen, 1 hour reaction, 0.05–50 μM compound) it was 2.66 µM. The “activity against KDM5B” value on FLAG-KDM5B (at 50 μM) is recorded as “no activity”. The “H3K4me3 Fold (H3K4me3/Total H3, normalized to DMSO)” value in experiment [2] (MCF7, 50 μM) came out at 0.8; in experiment [2] (MCF7, 100 μM), 0.8; in [3] (HeLa, 50 μM), 3.0; in [3] (HeLa, 100 μM) it was 3.2. Besides, the “proliferation relative to DMSO-treated cells” value in the experiment on HeLa cells is reported as “less than half of DMSO-treated cells”. Also, the “H3K4me2 and H3K4me1 levels” value in experiment [3] (HeLa) is “increased”. In addition, in experiment [3] (HeLa and MCF7 cells, western blot), the “cell activity by global H3K4 methylation changes” value is “cell-active”. For the same compound, the “global H3K4me3 levels” value is reported as “dose-dependent increase” in [3] (HeLa, 48 hour treatment) and “increased global H3K4me3 levels” in [4]. Further, the “mode of inhibition with respect to Fe(II)” value on full-length FLAG-KDM5A is “uncompetitive with respect to Fe(II)”. Besides, the “change of IC50 over a 16-fold range of α-KG concentrations” value on full-length FLAG-KDM5A (150 nM H3K4me3 peptide, 50 μM Fe(II)) is recorded as “did not change significantly”. Moreover, the inhibition (commonly the relative decrease from the control value, in per cent) at 2 µM is around 70% at full-length FLAG-KDM5A (50 μM Fe(II)) and around 25% on full-length FLAG-KDM5A (low Fe(II)). Also, the “enzyme inhibition at low Fe(II)” value on full-length FLAG-KDM5A (5 μM Fe(II)) is on record as “too weak to generate robust IC50 curves”. Besides, the “effect of catalase on inhibitory potency against KDM5A” value at full-length FLAG-KDM5A (0.01 mg/ml catalase) was “did not affect”. The H3K4 methylation entry in [5] was “only minor changes”.
